In ChEMBL document CHEMBL1201861, “Genomics of Drug Sensitity in Cancer screening data, Wellcome Trust Sanger Institute”:

Columns and labels:
Assay in all cases: cells
CW-2 = type: functional, cell-based, Homo sapiens; conditions: Homo sapiens, CW-2;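 also: growth inhibition of CW-2 cells, read out by a cell viability assay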
Description: SANGER: Inhibition of human CW-2 cell growth in a cell viability assay.

Calu-6 = type: functional, cell-based, Homo sapiens; conditions: Homo sapiens, Calu-6;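 also: growth of human Calu-6 cells, read out by a cell viability assay, IC50 marking inhibition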
Description: SANGER: Inhibition of human Calu-6 cell growth in a cell viability assay.

DOHH-2 = type: functional, cell-based; conditions: Homo sapiens;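 also: growth inhibition of human DOHH-2 cells, read out with a cell viability assay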
Description: SANGER: Inhibition of human DOHH-2 cell growth in a cell viability assay.

EW-24 = type: functional, cell-based; conditions: Homo sapiens;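 also: human EW-24 cancer cell line, growth inhibition read out via a cell viability assay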
Description: SANGER: Inhibition of human EW-24 cell growth in a cell viability assay.

HCC2218 = type: functional, cell-based; conditions: Homo sapiens;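 also: cell viability assay read-out, with IC50 given as the concentration that inhibits growth of the cell line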
Description: SANGER: Inhibition of human HCC2218 cell growth in a cell viability assay.

HCC 2998 = type: functional, cell-based, Homo sapiens; conditions: Homo sapiens, HCC 2998;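 also: growth inhibition of human HCC2998 cells, measured with a cell viability read-out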
Description: SANGER: Inhibition of human HCC2998 cell growth in a cell viability assay.

HD-MY-Z = type: functional, cell-based, Homo sapiens; conditions: Homo sapiens, HD-MY-Z;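 also: growth inhibition of HD-MY-Z cells, read out with a cell viability assay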
Description: SANGER: Inhibition of human HD-MY-Z cell growth in a cell viability assay.

HOP-62 = type: functional, cell-based, Homo sapiens; conditions: Homo sapiens, HOP-62;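 also: cell growth inhibition determined with a viability assay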
Description: SANGER: Inhibition of human HOP-62 cell growth in a cell viability assay.

IST-SL1 = type: functional, cell-based, Homo sapiens; conditions: Homo sapiens, IST-SL1;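 also: growth inhibition of human IST-SL1 cells, read out with a cell viability assay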
Description: SANGER: Inhibition of human IST-SL1 cell growth in a cell viability assay.

JAR = type: functional, cell-based, Homo sapiens; conditions: Homo sapiens, JAR;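 also: growth inhibition of human JAR cells determined with a cell viability assay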
KALS-1 = type: functional, cell-based, Homo sapiens; conditions: Homo sapiens, KALS-1;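 also: growth inhibition of KALS-1 cells, determined with a cell viability assay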
KINGS-1 = type: functional, cell-based, Homo sapiens; conditions: Homo sapiens, KINGS-1;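 also: cell viability assay measuring suppression of KINGS-1 cell growth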
Description: SANGER: Inhibition of human KINGS-1 cell growth in a cell viability assay.

KS-1 = type: functional, cell-based, Homo sapiens; conditions: Homo sapiens, KS-1;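 also: growth inhibition of KS-1 cells, read out with a cell viability assay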
Description: SANGER: Inhibition of human KS-1 cell growth in a cell viability assay.

LB2518-MEL = type: functional, cell-based, Homo sapiens; conditions: Homo sapiens, LB2518-MEL;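 also: growth inhibition of human LB2518-MEL cells, measured with a cell viability assay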
Description: SANGER: Inhibition of human LB2518-MEL cell growth in a cell viability assay.

LS-411N = type: functional, cell-based, Homo sapiens; conditions: Homo sapiens, LS-411N
LXF-289 cell line = type: functional, cell-based, Homo sapiens; conditions: Homo sapiens, LXF-289
Description: SANGER: Inhibition of human LXF-289 cell growth in a cell viability assay.

MLMA = type: functional, cell-based, Homo sapiens; conditions: Homo sapiens, MLMA;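 also: growth inhibition of MLMA cells (human), determined through a cell viability readout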
Description: SANGER: Inhibition of human MLMA cell growth in a cell viability assay.

MZ7-mel = type: functional, cell-based, Homo sapiens; conditions: Homo sapiens, MZ7-mel;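 also: growth inhibition of human MZ7-mel cells, measured by a cell viability assay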
Mo = type: functional, cell-based; conditions: Homo sapiens
Description: SANGER: Inhibition of human Mo-T cell growth in a cell viability assay.

NCI-H1395 = type: functional, cell-based, Homo sapiens; conditions: Homo sapiens, NCI-H1395;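 also: cell viability assay read-out quantifying reduced proliferation of human NCI-H1395 cells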
Description: SANGER: Inhibition of human NCI-H1395 cell growth in a cell viability assay.

NCI-H2126 = type: functional, cell-based, Homo sapiens; conditions: Homo sapiens, NCI-H2126;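 also: growth inhibition of the cancer cell line, determined with a cell viability readout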
Description: SANGER: Inhibition of human NCI-H2126 cell growth in a cell viability assay.

SNU-5 = type: functional, cell-based; conditions: Homo sapiens;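 also: cell viability readout used to measure growth inhibition in human NCI-SNU-5 cells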
Description: SANGER: Inhibition of human NCI-SNU-5 cell growth in a cell viability assay.

SK-NEP-1 = type: functional, cell-based; conditions: Homo sapiens;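 also: growth inhibition of human SK-NEP-1 cells, read out by a cell viability assay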
Description: SANGER: Inhibition of human SK-NEP-1 cell growth in a cell viability assay.

BB49-HNC = type: functional, cell-based, Homo sapiens; conditions: Homo sapiens, BB49-HNC;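 also: cell viability assay read-out, reported as inhibition of BB49-HNC cell growth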
Description: SANGER: Inhibition of human BB49-HNC cell growth in a cell viability assay.

C8166 = type: functional, cell-based; conditions: Homo sapiens;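 also: growth inhibition of human C8166 cells measured by a cell viability assay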
Description: SANGER: Inhibition of human C8166 cell growth in a cell viability assay.

For `CC1=C2C[C@H]3[C@@H](CC=C4C[C@@H](O)CC[C@@]43C)[C@@H]2CC[C@]12O[C@@H]1C[C@H](C)CN[C@H]1[C@H]2C` [CYCLOPAMINE], the IC50 (CW-2) was > 16000 nM, the IC50 (Calu-6) was > 16000 nM and the IC50 (DOHH-2) was 9360 nM. For the same compound, the IC50 (EW-24) was > 16000 nM, the IC50 (HCC2218) was > 16000 nM and the IC50 (HCC 2998) was > 16000 nM. The IC50 (HD-MY-Z) was > 16000 nM, the IC50 (HOP-62) was > 16000 nM and the IC50 (IST-SL1) was > 16000 nM. For the same compound, the IC50 (JAR) was > 16000 nM, the IC50 (KALS-1) was > 16000 nM and the IC50 (KINGS-1) was > 16000 nM. For the same compound, the IC50 (KS-1) was > 16000 nM, the IC50 (LB2518-MEL) was > 16000 nM and the IC50 (LS-411N) was > 16000 nM. The IC50 (LXF-289 cell line) was > 16000 nM, the IC50 (MLMA) was > 16000 nM and the IC50 (MZ7-mel) was > 16000 nM. The IC50 (Mo) was > 16000 nM, the IC50 (NCI-H1395) was > 16000 nM and the IC50 (NCI-H2126) was > 16000 nM. For the same compound, the IC50 (SNU-5) was > 16000 nM, the IC50 (SK-NEP-1) was > 16000 nM and the IC50 (BB49-HNC) was > 16000 nM. The IC50 (C8166) was > 16000 nM.
For `CN1CCN(CCOc2cc(OC3CCOCC3)c3c(Nc4c(Cl)ccc5c4OCO5)ncnc3c2)CC1` [SARACATINIB], the IC50 (CW-2) was > 2000 nM, the IC50 (Calu-6) was > 2000 nM and the IC50 (DOHH-2) was 1720 nM. The IC50 (EW-24) was 627 nM, the IC50 (HCC2218) was > 2000 nM and the IC50 (HD-MY-Z) was > 2000 nM. For the same compound, the IC50 (HOP-62) was 1500 nM, the IC50 (IST-SL1) was > 2000 nM and the IC50 (JAR) was > 2000 nM. The IC50 (KALS-1) was 1990 nM, the IC50 (KINGS-1) was > 2000 nM and the IC50 (KS-1) was 1200 nM. The IC50 (LB2518-MEL) was > 2000 nM, the IC50 (LS-411N) was > 2000 nM and the IC50 (LXF-289 cell line) was > 2000 nM. For the same compound, the IC50 (MLMA) was > 2000 nM, the IC50 (MZ7-mel) was > 2000 nM and the IC50 (Mo) was > 2000 nM. The IC50 (NCI-H1395) was > 2000 nM, the IC50 (NCI-H2126) was > 2000 nM and the IC50 (SNU-5) was > 2000 nM. The IC50 (SK-NEP-1) was > 2000 nM, the IC50 (BB49-HNC) was > 2000 nM and the IC50 (C8166) was > 2000 nM.
With `CS(=O)(=O)CCNCc1ccc(-c2ccc3ncnc(Nc4ccc(OCc5cccc(F)c5)c(Cl)c4)c3c2)o1` [LAPATINIB] the IC50 (CW-2) was > 2000 nM, the IC50 (Calu-6) was > 2000 nM and the IC50 (DOHH-2) was > 2000 nM. For the same compound, the IC50 (EW-24) was > 2000 nM, the IC50 (HCC2218) was 53.3 nM and the IC50 (HCC 2998) was > 2000 nM. The IC50 (HD-MY-Z) was > 2000 nM, the IC50 (HOP-62) was > 2000 nM and the IC50 (IST-SL1) was > 2000 nM. For the same compound, the IC50 (JAR) was > 2000 nM, the IC50 (KALS-1) was > 2000 nM and the IC50 (KINGS-1) was > 2000 nM. For the same compound, the IC50 (KS-1) was > 2000 nM, the IC50 (LB2518-MEL) was > 2000 nM and the IC50 (LS-411N) was > 2000 nM. The IC50 (LXF-289 cell line) was > 2000 nM, the IC50 (MLMA) was > 2000 nM and the IC50 (MZ7-mel) was > 2000 nM. The IC50 (Mo) was > 2000 nM, the IC50 (NCI-H1395) was > 2000 nM and the IC50 (NCI-H2126) was > 2000 nM. For the same compound, the IC50 (SNU-5) was > 2000 nM, the IC50 (SK-NEP-1) was > 2000 nM and the IC50 (BB49-HNC) was > 2000 nM. For the same compound, the IC50 (C8166) was > 2000 nM.
With `CO[C@H]1C[C@@H]2CC[C@@H](C)[C@@](O)(O2)C(=O)C(=O)N2CCCC[C@H]2C(=O)O[C@H]([C@H](C)C[C@@H]2CC[C@@H](O)[C@H](OC)C2)CC(=O)[C@H](C)/C=C(\C)[C@@H](O)[C@@H](OC)C(=O)[C@H](C)C[C@H](C)/C=C/C=C/C=C/1C` [SIROLIMUS] the IC50 (CW-2) was > 100 nM, the IC50 (Calu-6) was > 100 nM and the IC50 (DOHH-2) was 3.35 nM. The IC50 (EW-24) was > 100 nM, the IC50 (HCC2218) was > 100 nM and the IC50 (HD-MY-Z) was > 100 nM. The IC50 (HOP-62) was > 100 nM, the IC50 (IST-SL1) was > 100 nM and the IC50 (JAR) was > 100 nM. The IC50 (KALS-1) was 6.56 nM, the IC50 (KINGS-1) was 51.5 nM and the IC50 (KS-1) was 2.45 nM. The IC50 (LB2518-MEL) was > 100 nM, the IC50 (LS-411N) was 77.6 nM and the IC50 (LXF-289 cell line) was > 100 nM. The IC50 (MLMA) was > 100 nM, the IC50 (MZ7-mel) was > 100 nM and the IC50 (Mo) was > 100 nM. For the same compound, the IC50 (NCI-H1395) was > 100 nM, the IC50 (NCI-H2126) was > 100 nM and the IC50 (SNU-5) was > 100 nM. The IC50 (SK-NEP-1) was 8.79 nM, the IC50 (BB49-HNC) was > 100 nM and the IC50 (C8166) was > 100 nM.
With `CCC(=O)N1CCN(c2ccc(-n3c(=O)ccc4cnc5ccc(-c6cnc7ccccc7c6)cc5c43)cc2C(F)(F)F)CC1` [TORIN1] the IC50 (CW-2) was > 1200 nM, the IC50 (Calu-6) was 165 nM and the IC50 (DOHH-2) was 2.25 nM. For the same compound, the IC50 (EW-24) was > 1200 nM, the IC50 (HCC2218) was 472 nM and the IC50 (HD-MY-Z) was 24.3 nM. The IC50 (HOP-62) was 35.6 nM, the IC50 (IST-SL1) was 858 nM and the IC50 (JAR) was 116 nM. It also gave an IC50 (KALS-1) of 12 nM, an IC50 (KINGS-1) of 58 nM and an IC50 (KS-1) of 13.9 nM. It also gave an IC50 (LB2518-MEL) of 87 nM, an IC50 (LS-411N) of 14.4 nM and an IC50 (LXF-289 cell line) of 28.7 nM. The IC50 (MLMA) was 67.8 nM, the IC50 (MZ7-mel) was 26.1 nM and the IC50 (Mo) was > 1200 nM. The IC50 (NCI-H1395) was > 1200 nM, the IC50 (NCI-H2126) was 114 nM and the IC50 (SNU-5) was 136 nM. The IC50 (SK-NEP-1) was 161 nM, the IC50 (BB49-HNC) was 136 nM and the IC50 (C8166) was > 1200 nM.
`Cc1cc(Nc2cc(N3CCN(C)CC3)nc(Sc3ccc(NC(=O)C4CC4)cc3)n2)n[nH]1` [TOZASERTIB] was tested, and the IC50 (CW-2) was > 2000 nM, the IC50 (Calu-6) was > 2000 nM and the IC50 (DOHH-2) was 338 nM. The IC50 (EW-24) was > 2000 nM, the IC50 (HCC2218) was > 2000 nM and the IC50 (HD-MY-Z) was > 2000 nM. The IC50 (HOP-62) was 863 nM, the IC50 (IST-SL1) was > 2000 nM and the IC50 (JAR) was > 2000 nM. For the same compound, the IC50 (KALS-1) was > 2000 nM, the IC50 (KINGS-1) was > 2000 nM and the IC50 (KS-1) was 238 nM. For the same compound, the IC50 (LB2518-MEL) was > 2000 nM, the IC50 (LS-411N) was 578 nM and the IC50 (LXF-289 cell line) was 404 nM. The IC50 (MLMA) was > 2000 nM, the IC50 (MZ7-mel) was > 2000 nM and the IC50 (Mo) was > 2000 nM. For the same compound, the IC50 (NCI-H1395) was > 2000 nM, the IC50 (NCI-H2126) was > 2000 nM and the IC50 (SNU-5) was > 2000 nM. The IC50 (SK-NEP-1) was 1210 nM, the IC50 (BB49-HNC) was > 2000 nM and the IC50 (C8166) was > 2000 nM.
